According to ChEMBL document CHEMBL1201862, “PubChem BioAssay data set” (2004):
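Growth conditions: 96-well plates. Treatment: test compound, 48 hours, 5 concentrations. Analysis: linear interpolation between bracketing concentrations; unreached endpoints set to highest concentration. Abbreviation: GI50, concentration required for 50% inhibition of growth.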 Active and inactive are the calls of the source. Cut-off read from the data, not from the text of the source: active = GI50 up to about 1.1 µM and inactive = higher.

Legend:
Experiment in all cases: NCI-60 cell line screen, 48 h
OVCAR-3 = system: OVCAR-3
M14 = system: M14
A498 = system: A498
U-251 = system: U-251
HOP-92 = system: HOP-92
UACC-257 = system: UACC-257
HCT-15 = system: HCT-15
NCI-H226 = system: NCI-H226
SW-620 = system: SW-620
LOX IMVI = system: LOX IMVI
OVCAR-8 = system: OVCAR-8
KM12 = system: KM12
CAKI-1 = system: CAKI-1
TK-10 = system: TK-10
NCI/ADR-RES = system: NCI/ADR-RES
SK-OV-3 = system: SK-OV-3
IGROV-1 = system: IGROV-1
MOLT-4 = system: MOLT-4
MDA-MB-435 = system: MDA-MB-435
SNB-75 = system: SNB-75

Compound | GI50 (OVCAR-3) | GI50 (M14) | GI50 (A498) | GI50 (U-251) | GI50 (HOP-92) | GI50 (UACC-257) | GI50 (HCT-15) [µM] | GI50 (NCI-H226) | GI50 (SW-620) | GI50 (LOX IMVI) | GI50 (OVCAR-8) | GI50 (KM12) | GI50 (CAKI-1) | GI50 (TK-10) | GI50 (NCI/ADR-RES) | GI50 (SK-OV-3) | GI50 (IGROV-1) | GI50 (MOLT-4) | GI50 (MDA-MB-435) | GI50 (SNB-75)
S=C(S)NCCCn1ccnc1 | > 100 µM (inactive) | > 100 µM (inactive) | > 100 µM (inactive) | > 100 µM (inactive) | > 100 µM (inactive) | > 100 µM (inactive) | > 100 | > 100 µM (inactive) | > 100 µM (inactive) | > 100 µM (inactive) | > 100 µM (inactive) | > 100 µM (inactive) | > 100 µM (inactive) | > 100 µM (inactive) | > 100 µM (inactive) | > 100 µM (inactive) | > 100 µM (inactive) | > 100 µM (inactive) | > 100 µM (inactive) | 
CC(C)Cc1ccc(C(C)CC2=CCC(CN(C)C)C2=O)cc1 (stereo not drawn) | 11.2 µM (inactive) | 4.7 µM (inactive) | 18.5 µM (inactive) | 6.34 µM (inactive) | 2.95 µM (inactive) | 13.5 µM (inactive) | 2.64 | 16.7 µM (inactive) | 2.12 µM (inactive) | 4.97 µM (inactive) | 7.41 µM (inactive) | 3.13 µM (inactive) | 1.84 µM (inactive) |  | 16.9 µM (inactive) | 17.6 µM (inactive) | 9.51 µM (inactive) | 2.34 µM (inactive) | 8.13 µM (inactive) | 15.8 µM (inactive)
Cc1ccc(C(CC(=O)C(C)(C)CN2CCCCC2)SCCS(=O)(=O)O)cc1 (stereo not drawn) | 15.5 µM (inactive) | 23.8 µM (inactive) | 19.7 µM (inactive) | 29.4 µM (inactive) | 17.1 µM (inactive) |  | 22.6 | 30.7 µM (inactive) | 25.8 µM (inactive) |  | 21.9 µM (inactive) | 31.1 µM (inactive) | 22.3 µM (inactive) | 25.9 µM (inactive) | 28.8 µM (inactive) | 49.3 µM (inactive) | 33.9 µM (inactive) | 20.8 µM (inactive) | 23.7 µM (inactive) | 31.3 µM (inactive)
O=C(c1ccccc1)c1ccc2c(c1)nc1n2C(c2c(F)cccc2F)SC1 (stereo not drawn) | 19.9 µM (inactive) | 20.8 µM (inactive) | 19.5 µM (inactive) | 28.8 µM (inactive) | 40.5 µM (inactive) | 29.6 µM (inactive) | 36.6 | 34.8 µM (inactive) | 37.2 µM (inactive) | 25.6 µM (inactive) | 24.5 µM (inactive) | 11.2 µM (inactive) | 21.1 µM (inactive) | 39.2 µM (inactive) | 29.9 µM (inactive) | 30.5 µM (inactive) | 52.4 µM (inactive) |  | 27.3 µM (inactive) | 18.9 µM (inactive)
O=C1/C(=C/C=C/c2ccccc2)N=C(c2ccccc2)N1C1Nc2cc3c(cc2S1)NC(N1C(=O)/C(=C/C=C/c2ccccc2)N=C1c1ccccc1)S3 (stereo not drawn) | 46.9 µM (inactive) | 26.4 µM (inactive) | 15.5 µM (inactive) | 42.4 µM (inactive) | 22.2 µM (inactive) | > 100 µM (inactive) | 40.9 | > 100 µM (inactive) | 22.4 µM (inactive) | 48.8 µM (inactive) | 44.4 µM (inactive) | 21.7 µM (inactive) | 73.6 µM (inactive) | 86.7 µM (inactive) | 67.9 µM (inactive) | > 100 µM (inactive) | 48 µM (inactive) | 0.0117 µM (active) | 31.9 µM (inactive) | 
CC(=O)SSC1(Cl)C(C)(C)C(Cl)(SSC(C)=O)C1(C)C (stereo not drawn) | 61.4 µM (inactive) | 84.1 µM (inactive) | 67.5 µM (inactive) | 33.3 µM (inactive) | > 100 µM (inactive) | 41.3 µM (inactive) | 34.7 | > 100 µM (inactive) | 40.1 µM (inactive) | 33.3 µM (inactive) | 39.4 µM (inactive) | 39.4 µM (inactive) | > 100 µM (inactive) | 75.2 µM (inactive) | 40.2 µM (inactive) | > 100 µM (inactive) | 51.2 µM (inactive) |  | 49.1 µM (inactive) | 30.4 µM (inactive)
COCN1C(=O)[C@@H]2CCCN2C(=O)c2cc(Cl)ccc21 |  | > 100 µM (inactive) | > 100 µM (inactive) | > 100 µM (inactive) | > 100 µM (inactive) | > 100 µM (inactive) | > 100 |  | > 100 µM (inactive) | > 100 µM (inactive) | > 100 µM (inactive) | > 100 µM (inactive) | > 100 µM (inactive) | > 100 µM (inactive) | > 100 µM (inactive) | > 100 µM (inactive) | > 100 µM (inactive) | > 100 µM (inactive) | > 100 µM (inactive) | > 100 µM (inactive)
CCOC(=O)/C=C/[C@H](O[Si](CC)(CC)CC)C(C)(C)C | 52.7 µM (inactive) |  | > 100 µM (inactive) | 27.4 µM (inactive) | > 100 µM (inactive) | 31 µM (inactive) | 41.5 | > 100 µM (inactive) | 40.7 µM (inactive) | 21.5 µM (inactive) | > 100 µM (inactive) | > 100 µM (inactive) | > 100 µM (inactive) | > 100 µM (inactive) | > 100 µM (inactive) | > 100 µM (inactive) | > 100 µM (inactive) | 77.1 µM (inactive) | 59 µM (inactive) | > 100 µM (inactive)
Cc1cc(C)c(S(=O)(=O)N2CCN(S(=O)(=O)c3c(C)cc(C)cc3C)OCCCCCO2)c(C)c1 | > 100 µM (inactive) | > 100 µM (inactive) | > 100 µM (inactive) | > 100 µM (inactive) | 62.1 µM (inactive) | > 100 µM (inactive) | > 100 | > 100 µM (inactive) | > 100 µM (inactive) | > 100 µM (inactive) | > 100 µM (inactive) | > 100 µM (inactive) | > 100 µM (inactive) | > 100 µM (inactive) | > 100 µM (inactive) | > 100 µM (inactive) | > 100 µM (inactive) | > 100 µM (inactive) | > 100 µM (inactive) | 
CCNc1nc2c(ncn2C2CC(O)C(COP(=O)(O)O)O2)c(=O)[nH]1 (stereo not drawn) | > 100 µM (inactive) | > 100 µM (inactive) | > 100 µM (inactive) | > 100 µM (inactive) | > 100 µM (inactive) | > 100 µM (inactive) | > 100 | > 100 µM (inactive) | > 100 µM (inactive) | > 100 µM (inactive) | > 100 µM (inactive) | > 100 µM (inactive) | > 100 µM (inactive) | > 100 µM (inactive) | > 100 µM (inactive) | > 100 µM (inactive) | > 100 µM (inactive) |  | > 100 µM (inactive) | > 100 µM (inactive)
CSC(=S)N/N=C/c1ccccc1 | 42 µM (inactive) | 29.4 µM (inactive) | > 100 µM (inactive) | 52.6 µM (inactive) | 26.9 µM (inactive) | > 100 µM (inactive) | 34.4 | 40.6 µM (inactive) | 54.8 µM (inactive) | 45.1 µM (inactive) | 37.1 µM (inactive) | 65.6 µM (inactive) | 24.5 µM (inactive) | > 100 µM (inactive) | 25.4 µM (inactive) | > 100 µM (inactive) | 22.3 µM (inactive) |  | 47.4 µM (inactive) | 58.7 µM (inactive)
COc1cc(-c2c[nH]c3ccccc23)nc(-c2c[nH]c3ccccc23)n1 | 6.71 µM (inactive) | 4.07 µM (inactive) | 2.3 µM (inactive) | 4.19 µM (inactive) | 2.34 µM (inactive) | 8.91 µM (inactive) | 5.61 |  | 7.62 µM (inactive) | 4.84 µM (inactive) | 4.97 µM (inactive) | 4.18 µM (inactive) | 5.89 µM (inactive) | 7.98 µM (inactive) | 8.87 µM (inactive) | 10.9 µM (inactive) | 1.85 µM (inactive) | 2.9 µM (inactive) | 5.77 µM (inactive) | 6.1 µM (inactive)
CN1C(=O)C23CCCC2CC1(c1ccccc1)S3 (stereo not drawn) | > 100 µM (inactive) | > 100 µM (inactive) | > 100 µM (inactive) | > 100 µM (inactive) | 41 µM (inactive) | 23 µM (inactive) | > 100 | > 100 µM (inactive) | > 100 µM (inactive) | > 100 µM (inactive) | > 100 µM (inactive) | > 100 µM (inactive) | > 100 µM (inactive) | > 100 µM (inactive) | 64.9 µM (inactive) | > 100 µM (inactive) | > 100 µM (inactive) | > 100 µM (inactive) | > 100 µM (inactive) | 
O=c1[nH]c2ccc(C(F)(F)F)cc2nc1-c1ccccc1 | > 100 µM (inactive) | > 100 µM (inactive) | > 100 µM (inactive) |  | > 100 µM (inactive) | > 100 µM (inactive) | > 100 |  | > 100 µM (inactive) | > 100 µM (inactive) | 52.4 µM (inactive) |  | > 100 µM (inactive) | > 100 µM (inactive) | > 100 µM (inactive) |  | > 100 µM (inactive) | > 100 µM (inactive) | > 100 µM (inactive) | > 100 µM (inactive)
CC(=O)O[C@H]1C(=O)[C@@]2(C)[C@H]([C@H](OC(=O)c3ccccc3)[C@]3(O)C[C@H](OC(=O)[C@H](O)[C@@H](NC(=O)CC(C)(C)C)c4ccccc4)C(C)=C1C3(C)C)C1(OC(C)=O)CO[C@@H]1C[C@@H]2O (stereo partly drawn) |  |  | 0.303 µM (active) | 0.00441 µM (active) | 0.0106 µM (active) | 0.00684 µM (active) | 0.223 | 0.0194 µM (active) | 0.00171 µM (active) | 0.00175 µM (active) | 0.00283 µM (active) |  | 0.128 µM (active) | 0.047 µM (active) | 4.26 µM (inactive) | 0.00171 µM (active) | 0.00154 µM (active) | 0.00296 µM (active) | < 0.001 µM (active) | < 0.001 µM (active)
